Measurements from patent publication US20110251203A1, “USE OF PKC INHIBITORS IN DIABETIC COMPLICATIONS” (priority 2006, published 2011).

Tested on: transgenic (mRen-2)27 rats
Experiment: Streptozotocin-diabetic Ren-2 rat model of diabetic complications
Assay type: in vivo
Details: administered i.v. at a dose of from 0.1 to 10 mg/kg
Procedure: Ren-2 rats (e.g. as disclosed in D. J. Kelly et al, Kidney Int, Vol 54, 1998, p343-352)
The effect of Compound A, B or C, on diabetic complications is tested in transgenic (mRen-2)27 rats (also called “Ren-2 rats”), model that develops hypertension and many of the structural and functional characteristics of human diabetic nephropathy when diabetes is induced by streptozotocin, resulting in a progressive disease with many of the structural, functional and molecular characteristics of human diabetic nephropathy. The progression of this disease is associated with an increase in renal and cardiac growth factors and extra cellular matrix accumulation.
The effect of the compounds of the invention on diabetic nephropathy may be studied with the Ren-2 rats model, as disclosed in D. J. Kelly et al, Diabetes, Vol 52, February 2003, p512-518: Diabetes is induced by injection of streptozotocin, 55 mg/kg. All diabetic rats receive insulin (human isophane) 2 units/day to promote body weight and reduce mortality. The experimental period continues for 16 weeks in Ren-2 rats to study advanced renal and cardiac disease. Rats are randomised to the following groups:
Group 1: non-diabetic Ren-2, no drug Group 2: non-diabetic Ren2, Compound C Group 3: non-diabetic Ren-2, Compound A Group 4: diabetic Ren-2 Group 5: diabetic Ren-2, drug Compound C, dose 1 Group 6: diabetic Ren-2, drug Compound A, dose 1 Group 7: diabetic Ren-2, drug Compound C, dose 2 Group 8: diabetic Ren-2, drug Compound A, dose 2 N=20 per group (160 rats) […]
The spatial distribution and quantitation of the immunohistochemistry by image analysis provide specific information regarding the cell type and location of disease progression. […]
The right kidney is snap frozen in liquid nitrogen and used for molecular biological experiments. Tissue and cell specific changes in expression may be quantifyed using immunohistochemistry with quantitative image analysis and real time PCR (ABI Prism 7700, Perkin Elmer Biosystems, Foster City, Calif.) with TaqMan, Such a PCR analysis is a technique well known by the one skilled in the art.

Compound | effect on the diabetic complications
O=C1NC(=O)C(c2c[nH]c3ccccc23)=C1c1nc(N2CCNCC2)nc2ccccc12 [Compound B, 3-(1.H.-indol-3-yl)-4-[2-(piperazin-1-yl)-quinazolin-4-yl]-pyrrole-2,5-dione] | beneficial effect
Cc1cccc2c(C3=C(c4nc(N5CCNC6(CC6)C5)cc5ccccc45)C(=O)NC3=O)c[nH]c12 [Compound C, 3-[3-(4,7-Diaza-spiro[2,5]oct-7-yl)-isoquinolin-1-yl]-4-(7-methyl-1H-indol-3-yl)-pyrrole-2,5-dione] | beneficial effect
CN1CCN(c2nc(C3=C(c4c[nH]c5ccccc45)C(=O)NC3=O)c3ccccc3n2)CC1 [Compound A, 3-(1.H.-indol-3-yl)-4-[2-(4-methyl-piperazin-1-yl)-quinazolin-4-yl]-pyrrole-2,5-dione] | beneficial effect
